Experiments:
DNA polymerase theta [1] = biological target: T1, DNA polymerase theta (Homo sapiens, UniProt O75417); experiment: Inhibition of human DNA polymerase theta pol domain (1819 to 2590 residues) expressed in Escherichia coli BL21 (DE3) cells preincubated for 15 mins followed by DNA and dNTP addition and measured after 120 mins by Picogreen dye fluorescence intensity analysis
[2] = AUC in CD-1 mouse at 20 mg/kg, po measured upto 24 hrs by reverse phase LCMS analysis; assay type: ADME, organism-based; parameters: time < 24 hrs, dose 20 mg/kg, route po; details: in vivo
DNA polymerase theta [3] = biological target: T1, DNA polymerase theta; experiment: Inhibition of N-terminal His8-tagged/C-terminal FLAG-tagged full length human DNA polymerase theta ( 1 to 2590 residues) polymerase activity expressed in HEK2936E cells; assay type: cell-based
[4] = biological target: T2, DNA polymerase alpha catalytic subunit (Homo sapiens, UniProt P09884); experiment: Inhibition of human DNA polymerase alpha
T2 sequence (P09884 whole entry): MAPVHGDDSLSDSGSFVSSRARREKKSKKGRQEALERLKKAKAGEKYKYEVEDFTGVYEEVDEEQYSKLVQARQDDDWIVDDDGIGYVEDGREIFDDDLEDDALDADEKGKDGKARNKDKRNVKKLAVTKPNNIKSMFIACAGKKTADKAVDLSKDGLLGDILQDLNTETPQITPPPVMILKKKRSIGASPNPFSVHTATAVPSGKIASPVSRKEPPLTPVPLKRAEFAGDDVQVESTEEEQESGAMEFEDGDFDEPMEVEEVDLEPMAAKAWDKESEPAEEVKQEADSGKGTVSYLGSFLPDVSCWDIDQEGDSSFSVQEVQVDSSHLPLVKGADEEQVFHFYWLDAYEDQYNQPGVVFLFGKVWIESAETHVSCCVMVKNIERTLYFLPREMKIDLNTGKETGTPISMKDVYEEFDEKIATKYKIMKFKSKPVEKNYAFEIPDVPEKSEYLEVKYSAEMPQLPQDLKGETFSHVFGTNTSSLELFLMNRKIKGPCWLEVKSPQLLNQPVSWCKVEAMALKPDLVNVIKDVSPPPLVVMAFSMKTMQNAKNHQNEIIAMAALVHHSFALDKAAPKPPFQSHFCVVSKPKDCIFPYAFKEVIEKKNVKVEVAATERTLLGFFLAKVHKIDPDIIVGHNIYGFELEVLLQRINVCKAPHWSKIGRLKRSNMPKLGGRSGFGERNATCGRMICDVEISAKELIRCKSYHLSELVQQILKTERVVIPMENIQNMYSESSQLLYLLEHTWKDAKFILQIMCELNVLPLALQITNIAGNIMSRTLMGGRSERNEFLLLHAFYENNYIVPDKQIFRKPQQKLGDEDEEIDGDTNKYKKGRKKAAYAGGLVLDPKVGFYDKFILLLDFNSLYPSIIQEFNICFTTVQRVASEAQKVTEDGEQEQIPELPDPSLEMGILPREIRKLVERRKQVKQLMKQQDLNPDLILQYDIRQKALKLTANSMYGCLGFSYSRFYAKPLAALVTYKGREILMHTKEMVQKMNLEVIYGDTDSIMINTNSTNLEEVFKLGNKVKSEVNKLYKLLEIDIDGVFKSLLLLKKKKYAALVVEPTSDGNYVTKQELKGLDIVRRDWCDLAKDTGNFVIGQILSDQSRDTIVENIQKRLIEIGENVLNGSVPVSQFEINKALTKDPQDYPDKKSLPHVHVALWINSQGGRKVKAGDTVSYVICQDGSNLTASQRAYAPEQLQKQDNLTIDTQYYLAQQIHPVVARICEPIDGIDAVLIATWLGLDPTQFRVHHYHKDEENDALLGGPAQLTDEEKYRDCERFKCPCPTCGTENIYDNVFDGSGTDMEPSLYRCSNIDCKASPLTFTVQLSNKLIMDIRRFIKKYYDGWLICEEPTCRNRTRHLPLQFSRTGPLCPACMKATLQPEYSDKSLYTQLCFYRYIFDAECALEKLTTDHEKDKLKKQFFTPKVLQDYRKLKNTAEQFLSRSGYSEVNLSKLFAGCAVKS

DNA polymerase theta [5] = biological target: T1, DNA polymerase theta; experiment: Inhibition of DNA polymerase theta in LIG4 knock out HEK293T cells assessed as decrease in MMEJ-mediated DNA repair preincubated for 1 day followed by lentivirus solution addition for 24 hrs prior to media replacement with compound and measured after 96 hrs by flow cytometry based traffic-light reporter assay; assay type: cell-based
HCT-116 = experiment: Antiproliferative activity against BRCA2 knock out human HCT-116 cells assessed as inhibition of cell growth incubated for 12 to 14 days with media replacement for every 3 or 4 days; assay type: functional, cell-based
[6] = fCaverage in CD-1 mouse; assay type: ADME
[7] = Volume of distribution at steady state in CD-1 mouse at 2.5 mg/kg, po or 2.5 mg/kg, iv measured upto 24 hrs by reverse phase LCMS analysis; assay type: ADME, organism-based; details: in vivo
[8] = Oral bioavailability in CD-1 mouse at […] measured upto 24 hrs by reverse phase LCMS analysis; assay type: ADME, organism-based; details: in vivo
[9] = Inhibition of Alt-Ej-mediated DNA repair in LIG4 knock out HEK293T cells; assay type: functional, cell-based, Homo sapiens; details: hek-293t
[10] = Toxicity in CD-1 mouse xenografted with BRCA2 knock in human HCT-116 cells assessed as drug tolerance at 80 mg/kg, po administered twice a day for 21 days; assay type: organism-based; details: in vivo, 504 h, time 21 day
[11] = Toxicity in CD-1 mouse xenografted with BRCA2 knock in human HCT-116 cells assessed as body weight loss at 80 mg/kg, po administered twice a day for 21 days; assay type: organism-based; details: in vivo, 504 h, time 21 day
[12] = Toxicity in CD-1 mouse xenografted with BRCA2 knock out human HCT-116 cells assessed as body weight loss at 80 mg/kg, po administered twice a day for 21 days; assay type: organism-based; details: in vivo, 504 h, time 21 day
[13] = AUC in CD-1 nude mouse at 80 mg/kg, po administered twice daily and measured on day 7 by HPLC-MS analysis; assay type: ADME, organism-based; parameters: time 7 day, dose 80 mg/kg, route po; details: in vivo

T1 sequence (O75417 whole entry, the tested form may be a part): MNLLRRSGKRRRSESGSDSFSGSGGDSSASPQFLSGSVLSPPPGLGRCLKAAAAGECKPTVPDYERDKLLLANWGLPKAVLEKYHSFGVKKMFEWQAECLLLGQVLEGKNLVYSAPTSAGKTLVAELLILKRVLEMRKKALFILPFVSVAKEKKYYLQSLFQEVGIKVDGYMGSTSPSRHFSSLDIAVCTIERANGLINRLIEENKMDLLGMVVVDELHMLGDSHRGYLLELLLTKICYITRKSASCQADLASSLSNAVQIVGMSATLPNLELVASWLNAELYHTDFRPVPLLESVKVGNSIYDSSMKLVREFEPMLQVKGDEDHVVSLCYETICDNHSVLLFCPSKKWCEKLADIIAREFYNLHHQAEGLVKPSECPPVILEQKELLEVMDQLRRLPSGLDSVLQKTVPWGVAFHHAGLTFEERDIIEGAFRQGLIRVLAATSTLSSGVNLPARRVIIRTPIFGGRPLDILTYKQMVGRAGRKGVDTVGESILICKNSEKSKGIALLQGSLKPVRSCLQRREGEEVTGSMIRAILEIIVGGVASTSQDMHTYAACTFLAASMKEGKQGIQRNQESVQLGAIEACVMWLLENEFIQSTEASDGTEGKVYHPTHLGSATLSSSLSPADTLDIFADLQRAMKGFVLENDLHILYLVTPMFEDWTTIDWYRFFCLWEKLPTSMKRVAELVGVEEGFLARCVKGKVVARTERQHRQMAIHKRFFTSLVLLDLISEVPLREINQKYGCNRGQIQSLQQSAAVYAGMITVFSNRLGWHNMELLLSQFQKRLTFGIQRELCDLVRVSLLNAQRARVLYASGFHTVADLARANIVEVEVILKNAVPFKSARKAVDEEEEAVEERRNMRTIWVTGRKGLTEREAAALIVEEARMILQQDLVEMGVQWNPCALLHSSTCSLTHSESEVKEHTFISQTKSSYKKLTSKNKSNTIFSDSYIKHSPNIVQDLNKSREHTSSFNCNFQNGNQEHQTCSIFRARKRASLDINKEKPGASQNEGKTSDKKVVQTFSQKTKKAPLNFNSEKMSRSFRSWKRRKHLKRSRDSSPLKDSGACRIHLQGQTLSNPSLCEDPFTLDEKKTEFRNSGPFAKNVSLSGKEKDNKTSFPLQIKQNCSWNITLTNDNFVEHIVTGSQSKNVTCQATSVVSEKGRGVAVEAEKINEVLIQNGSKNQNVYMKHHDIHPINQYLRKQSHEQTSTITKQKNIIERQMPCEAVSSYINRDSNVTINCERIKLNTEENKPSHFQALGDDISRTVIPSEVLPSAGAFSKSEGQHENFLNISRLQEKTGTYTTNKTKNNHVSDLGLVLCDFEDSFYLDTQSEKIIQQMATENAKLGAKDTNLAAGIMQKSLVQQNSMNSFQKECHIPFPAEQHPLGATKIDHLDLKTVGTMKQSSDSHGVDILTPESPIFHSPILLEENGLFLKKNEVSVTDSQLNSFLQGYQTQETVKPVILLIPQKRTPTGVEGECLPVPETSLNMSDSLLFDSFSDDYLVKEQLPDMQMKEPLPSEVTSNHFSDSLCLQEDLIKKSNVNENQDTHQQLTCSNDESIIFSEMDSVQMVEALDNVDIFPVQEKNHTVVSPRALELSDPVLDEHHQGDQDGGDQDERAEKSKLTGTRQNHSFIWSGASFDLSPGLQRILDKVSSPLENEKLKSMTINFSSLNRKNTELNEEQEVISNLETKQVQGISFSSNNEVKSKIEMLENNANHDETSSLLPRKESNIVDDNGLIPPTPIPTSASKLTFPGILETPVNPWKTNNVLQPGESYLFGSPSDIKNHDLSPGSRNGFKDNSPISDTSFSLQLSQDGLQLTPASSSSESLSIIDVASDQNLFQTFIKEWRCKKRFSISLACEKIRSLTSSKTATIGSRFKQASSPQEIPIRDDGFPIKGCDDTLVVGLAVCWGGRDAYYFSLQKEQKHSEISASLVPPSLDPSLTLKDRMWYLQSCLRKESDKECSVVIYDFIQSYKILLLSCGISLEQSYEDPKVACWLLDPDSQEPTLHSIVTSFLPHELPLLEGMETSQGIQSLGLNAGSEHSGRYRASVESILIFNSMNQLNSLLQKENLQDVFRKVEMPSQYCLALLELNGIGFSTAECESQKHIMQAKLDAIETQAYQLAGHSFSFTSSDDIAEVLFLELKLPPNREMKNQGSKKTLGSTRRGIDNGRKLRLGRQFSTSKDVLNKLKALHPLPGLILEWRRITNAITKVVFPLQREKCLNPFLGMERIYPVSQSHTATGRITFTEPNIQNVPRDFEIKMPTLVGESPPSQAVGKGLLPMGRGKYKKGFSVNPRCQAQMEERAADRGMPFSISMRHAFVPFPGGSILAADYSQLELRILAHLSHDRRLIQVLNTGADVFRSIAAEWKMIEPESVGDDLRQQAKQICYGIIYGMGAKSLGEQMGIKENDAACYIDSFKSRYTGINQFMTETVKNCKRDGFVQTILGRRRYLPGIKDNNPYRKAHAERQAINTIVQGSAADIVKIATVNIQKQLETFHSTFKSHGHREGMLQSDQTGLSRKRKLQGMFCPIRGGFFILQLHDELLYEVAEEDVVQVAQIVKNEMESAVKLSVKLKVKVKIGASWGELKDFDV

## Nc1ccc(C#CCN(C(=O)Cc2ncc(C(F)(F)F)cc2C(F)(F)F)c2ccc(F)cc2)nn1
DNA polymerase theta [1]
  IC50: 0.0058 µM
[2]
  AUC: 49.7 µM·h
DNA polymerase theta [3]
  IC50: 0.00055 µM
[4]
  IC50: > 100 µM
DNA polymerase theta [5]
  IC50: 0.94 µM
HCT-116
  IC50: 0.32 µM
[6]
  f(Cave): 0.107 µM
[7]
  Vdss: 1.1 L/kg
[8]
  bioavailability: 66%
[9]
  IC50: 2.15 µM
[10]
  Activity: Non-Toxic
[11]
  Activity: Non-Toxic
[12]
  Activity: Non-Toxic
[13]
  AUC at 168 h: 14.7 µM·h

From ChEMBL document CHEMBL5108047 (J Med Chem, 2022)
